From patent publication EP2799533A1, “Protease and inhibitor containing water-soluble films” (Novozymes A/S, priority 2013, dated 2014)

Columns and labels:
Type in all cases: biochemical
[1] = tested on: Mannaway; experiment: Residual enzymatic activity of mannanase in water-soluble film after film production; details: Mannanase (Mannaway, 0.03% wt) in film with Savinase protease; 0.5% wt 4-FPBA; vs. amount of enzyme added; average of three analyses; film without 4-FPBA: 1%
Description: (§1) We prepared two different enzyme containing water-soluble films, as outlined in Table 1 below. The films were produced under normal film production conditions. Later, the films were analyzed to estimate the enzymatic activity remaining after the production process, i.e., the percentage of residual enzymatic activity in the final film product, as compared to the amount of enzyme added in the production process.
The mannanase used was Mannaway (Novozymes A/S, Denmark), which was added to obtain a final concentration of 0.03% wt active enzyme protein in both of the films.
(§2) The protease inhibitor used was 4-formyl-phenyl-boronic acid (4-FPBA), which was added to obtain a final concentration of 0.5% wt in one of the water-soluble films.
(§3) Since the humidity of the samples was not controlled, some of the absolute values from the analysis are above 100%. However, all film samples were treated identically and analyzed at the same time, and therefore the relative improvement by using the protease inhibitor can be calculated. Table 1. The data are based on an average of three analyses of each film.

[2] = target: T1, Savinase (Lederbergia lenta, UniProt P29600); experiment: Residual enzymatic activity of protease in water-soluble film after film production
T1 construct: purchased Novozymes A/S, Denmark
T1 sequence (P29600 1-269): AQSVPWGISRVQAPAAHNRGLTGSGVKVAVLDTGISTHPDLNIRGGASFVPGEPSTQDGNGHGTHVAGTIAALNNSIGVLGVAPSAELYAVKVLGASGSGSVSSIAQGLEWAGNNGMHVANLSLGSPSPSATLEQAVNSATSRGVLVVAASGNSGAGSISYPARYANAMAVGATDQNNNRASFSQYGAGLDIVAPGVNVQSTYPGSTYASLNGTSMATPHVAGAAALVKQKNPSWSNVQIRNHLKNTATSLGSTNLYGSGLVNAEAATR
Description: as §1
The protease used for preparing the films was Savinase (Novozymes A/S, Denmark), which was added to obtain a final concentration of 1.1 % wt active enzyme protein in both of the water-soluble films.
as §2, §3

[3] = tested on: Stainzyme; experiment: Residual enzymatic activity of amylase in water-soluble film after film production
Description: as §1
The amylase used was Stainzyme (Novozymes A/S, Denmark), which was added to obtain a final concentration of 0.1 % wt active enzyme protein in both of the films.
as §2, §3

O=Cc1ccc(B(O)O)cc1 [4-FPBA, 4-formyl-phenyl-boronic acid]
Residual activity in film made with 4-FPBA [1]: 63% | Residual activity in film made with 4-FPBA ([2]; Protease (Savinase, 1.1 % wt) in film also holding amylase and mannanase, 0.5% wt 4-FPBA, vs. amount of enzyme added, average of three analyses, film without 4-FPBA: 87%): 93% | Relative improvement by using inhibitor ([2]; Protease, film with 0.5% wt 4-FPBA vs. film without 4-FPBA): 7% | Residual activity in film made with 4-FPBA ([3]; Amylase (Stainzyme, 0.1 % wt) in film with Savinase protease, 0.5% wt 4-FPBA, vs. amount of enzyme added, average of three analyses, humidity not controlled, values above 100%, film without 4-FPBA: 106%): 114% | Relative improvement by using inhibitor ([3]; Amylase, film with 0.5% wt 4-FPBA vs. film without 4-FPBA): 8%
